Measured values published in the NIST ThermoML archive (doi:10.1016/j.jct.2019.03.040).

How the values were obtained:
[1] = Liquid; for thermal diffusivity: 101.33 kPa, Laser flash apparatus
[2] = molar heat capacity at constant pressure; settings: 101.33 kPa, Liquid, Small sample (50 mg) DSC

COC(=O)CCC(C)=O [methyl levulinate]
Settings	Critical pressure [kPa]	Critical temperature [K]	molar heat capacity at constant pressure [J/K/mol]	thermal diffusivity [m2/s]
[1], 303.15 K	–	–	–	8e-08
[1], 313.15 K	–	–	–	7.9e-08
[1], 323.15 K	–	–	–	7.85e-08
[1], 333.15 K	–	–	–	7.7e-08
[1], 343.15 K	–	–	–	7.6e-08
[1], 353.15 K	–	–	–	7.5e-08
[1], 363.15 K	–	–	–	7.35e-08
[1], 373.15 K	–	–	–	7.25e-08
[1], Resistive pulse heating	3270	668	–	–
[2], 302.68 K	–	–	258.85	–
[2], 303.18 K	–	–	259.11	–
[2], 303.68 K	–	–	258.98	–
[2], 304.18 K	–	–	259.24	–
[2], 304.68 K	–	–	258.98	–
[2], 305.18 K	–	–	258.72	–
[2], 305.68 K	–	–	259.11	–
[2], 306.18 K	–	–	258.85	–
[2], 306.68 K	–	–	258.98	–
[2], 307.18 K	–	–	259.5	–
[2], 307.68 K	–	–	259.63	–
[2], 308.18 K	–	–	259.89	–
[2], 308.68 K	–	–	260.15	–
[2], 309.18 K	–	–	259.89	–
[2], 309.68 K	–	–	259.63	–
[2], 310.18 K	–	–	259.76	–
[2], 310.68 K	–	–	259.37	–
[2], 311.18 K	–	–	259.37	–
[2], 311.68 K	–	–	259.5	–
[2], 312.18 K	–	–	259.76	–
[2], 312.68 K	–	–	259.89	–
[2], 313.18 K	–	–	259.76	–
[2], 313.68 K	–	–	260.15	–
[2], 314.18 K	–	–	260.02	–
[2], 314.68 K	–	–	260.54	–
[2], 315.18 K	–	–	260.15	–
[2], 315.68 K	–	–	260.02	–
[2], 316.18 K	–	–	259.89	–
[2], 316.68 K	–	–	260.8	–
[2], 317.18 K	–	–	260.93	–
[2], 317.68 K	–	–	260.8	–
[2], 318.18 K	–	–	261.06	–
[2], 318.68 K	–	–	261.06	–
[2], 319.18 K	–	–	261.19	–
[2], 319.68 K	–	–	261.06	–
[2], 320.18 K	–	–	260.93	–
[2], 320.68 K	–	–	261.06	–
[2], 321.18 K	–	–	261.19	–
[2], 321.68 K	–	–	261.32	–
[2], 322.18 K	–	–	261.06	–
[2], 322.68 K	–	–	260.8	–
[2], 323.18 K	–	–	261.32	–
[2], 323.68 K	–	–	261.32	–
[2], 324.18 K	–	–	261.45	–
[2], 324.68 K	–	–	261.72	–
[2], 325.18 K	–	–	261.59	–
[2], 325.68 K	–	–	261.85	–
[2], 326.18 K	–	–	261.98	–
[2], 326.68 K	–	–	262.11	–
[2], 327.18 K	–	–	262.11	–
[2], 327.68 K	–	–	262.24	–
[2], 328.18 K	–	–	262.37	–
[2], 328.68 K	–	–	262.63	–
[2], 329.18 K	–	–	262.76	–
[2], 329.68 K	–	–	262.63	–
[2], 330.18 K	–	–	262.63	–
[2], 330.68 K	–	–	263.02	–
[2], 331.18 K	–	–	263.15	–
[2], 331.68 K	–	–	263.15	–
[2], 332.18 K	–	–	263.93	–
[2], 332.68 K	–	–	263.8	–
[2], 333.18 K	–	–	264.06	–
[2], 333.68 K	–	–	263.93	–
[2], 334.18 K	–	–	264.06	–
[2], 334.68 K	–	–	264.45	–
[2], 335.18 K	–	–	264.45	–
[2], 335.68 K	–	–	264.19	–
[2], 336.18 K	–	–	264.19	–
[2], 336.68 K	–	–	264.58	–
[2], 337.18 K	–	–	264.45	–
[2], 337.68 K	–	–	264.32	–
[2], 338.18 K	–	–	264.45	–
[2], 338.68 K	–	–	264.45	–
[2], 339.18 K	–	–	265.1	–
[2], 339.68 K	–	–	265.36	–
[2], 340.18 K	–	–	264.97	–
[2], 340.68 K	–	–	264.84	–
[2], 341.18 K	–	–	264.97	–
[2], 341.68 K	–	–	265.49	–
[2], 342.18 K	–	–	265.49	–
[2], 342.68 K	–	–	265.62	–
[2], 343.18 K	–	–	265.75	–
[2], 343.68 K	–	–	266.01	–
[2], 344.18 K	–	–	266.4	–
[2], 344.68 K	–	–	266.27	–
[2], 345.18 K	–	–	266.27	–
[2], 345.68 K	–	–	266.4	–
[2], 346.18 K	–	–	266.79	–
[2], 346.68 K	–	–	266.4	–
[2], 347.18 K	–	–	266.79	–
[2], 347.68 K	–	–	266.66	–
[2], 348.18 K	–	–	266.92	–
[2], 348.68 K	–	–	267.31	–
[2], 349.18 K	–	–	266.92	–
[2], 349.68 K	–	–	267.18	–
[2], 350.18 K	–	–	267.7	–
[2], 350.68 K	–	–	267.7	–
[2], 351.18 K	–	–	268.09	–
[2], 351.68 K	–	–	268.09	–
[2], 352.18 K	–	–	267.96	–
[2], 352.68 K	–	–	268.48	–
[2], 353.18 K	–	–	268.61	–
[2], 353.68 K	–	–	268.61	–
[2], 354.18 K	–	–	268.48	–
[2], 354.68 K	–	–	268.48	–
[2], 355.18 K	–	–	268.87	–
[2], 355.68 K	–	–	268.87	–
[2], 356.18 K	–	–	268.87	–
[2], 356.68 K	–	–	269.13	–
[2], 357.18 K	–	–	269.39	–
[2], 357.68 K	–	–	269.78	–
[2], 358.18 K	–	–	269.91	–
[2], 358.68 K	–	–	269.65	–
[2], 359.18 K	–	–	270.17	–
[2], 359.68 K	–	–	270.3	–
[2], 360.18 K	–	–	270.56	–
[2], 360.68 K	–	–	270.83	–
[2], 361.18 K	–	–	270.96	–
[2], 361.68 K	–	–	270.56	–
[2], 362.18 K	–	–	270.56	–
[2], 362.68 K	–	–	270.56	–
[2], 363.18 K	–	–	271.09	–
[2], 363.68 K	–	–	270.96	–
[2], 364.18 K	–	–	271.22	–
[2], 364.68 K	–	–	271.48	–
[2], 365.18 K	–	–	271.74	–
[2], 365.68 K	–	–	271.74	–
[2], 366.18 K	–	–	271.87	–
[2], 366.68 K	–	–	271.87	–
[2], 367.18 K	–	–	271.87	–
[2], 367.68 K	–	–	272.39	–
[2], 368.18 K	–	–	272.52	–
[2], 368.68 K	–	–	272.65	–
[2], 369.18 K	–	–	273.04	–
[2], 369.68 K	–	–	273.04	–
[2], 370.18 K	–	–	272.78	–
[2], 370.68 K	–	–	272.91	–
[2], 371.18 K	–	–	273.3	–
[2], 371.68 K	–	–	273.56	–
[2], 372.18 K	–	–	273.56	–
[2], 372.68 K	–	–	273.56	–
[2], 373.18 K	–	–	273.82	–
[2], 373.68 K	–	–	273.69	–
